Laboratory results published in ChEMBL document CHEMBL5042539, “Structure-Guided Discovery of the Novel Covalent Allosteric Site and Covalent Inhibitors of Fructose-1,6-Bisphosphate Aldolase to Overcome the Azole Resistance of Candidiasis” (J Med Chem, 2022).
Converted amounts (≈) assume the structure as drawn. The source made the active and inactive calls. The rule behind the calls is not given here.

Key:
Candida albicans [1] = assay: Antifungal activity against fluconazole resistant Candida albicans 103 incubated for 48 hrs by CLSI based broth microdilution method; type: functional
Candida albicans [2] = assay: Antibiofilm activity against azole resistant Candida albicans 0304103 assessed as inhibition of biofilm formation by XTT assay; type: functional, organism-based; details: dose 0-64 µg/ml
Candida albicans [3] = assay: Antifungal activity against azole-resistant Candida albicans 030410 assessed as inhibition of fungal filamentation by measuring reduction in yeast-hypha transition at 32 ug/ml by microscopic analysis; type: functional, organism-based; details: dose 32.0 µg/ml
Candida albicans [4] = assay: Antifungal activity against fluconazole resistant Candida albicans 7781 incubated for 48 hrs by CLSI based broth microdilution method; type: functional
Candida albicans [5] = assay: Antifungal activity against Candida albicans SC5314 incubated for 48 hrs by CLSI based broth microdilution method; type: functional
Candida albicans [6] = assay: Antifungal activity against fluconazole resistant Candida albicans 904 incubated for 48 hrs by CLSI based broth microdilution method; type: functional
[7] = Cytotoxicity against human HaCaT cells; type: toxicity, cell-based
[8] = Inhibition of wild type Candida albicans Fructose-1,6-Bisphosphate Aldolase transfected in Escherichia coli BL21 (DE3) incubated for 3 mins in presence of NADH by spectrophotometric analysis
Candida albicans [9] = assay: Inhibition of wild type Candida albicans Fructose-1,6-Bisphosphate Aldolase transfected in Escherichia coli BL21 (DE3) at 50 uM incubated for 3 mins in presence of NADH by spectrophotometric analysis relative to control
Candida albicans [10] = assay: Inhibition of wild type Candida albicans Fructose-1,6-Bisphosphate Aldolase transfected in Escherichia coli BL21 (DE3) at 100 uM incubated for 3 mins in presence of NADH by spectrophotometric analysis relative to control
Candida albicans [11] = assay: Binding affinity to Candida albicans Fructose-1,6-Bisphosphate Aldolase assessed as ratio of kinact/Ki incubated for 12 to 40 mins by NADH-linked enzymatic assay; details: time 12-40 min
[12] = Binding affinity to Candida albicans Fructose-1,6-Bisphosphate Aldolase assessed as inhibition constant incubated for 12 to 40 mins by NADH-linked enzymatic assay
Candida albicans [13] = assay: Binding affinity to Candida albicans Fructose-1,6-Bisphosphate Aldolase assessed as Kinact incubated for 12 to 40 mins by NADH-linked enzymatic assay; details: time 12-40 min
[14] = Inhibition of Candida albicans Fructose-1,6-Bisphosphate Aldolase C157S mutant transfected in Escherichia coli BL21 (DE3) incubated for 3 mins in presence of NADH by spectrophotometric analysis
[15] = Inhibition of Candida albicans Fructose-1,6-Bisphosphate Aldolase C111S mutant transfected in Escherichia coli BL21 (DE3) incubated for 3 mins in presence of NADH by spectrophotometric analysis
[16] = Inhibition of Candida albicans Fructose-1,6-Bisphosphate Aldolase C292S mutant transfected in Escherichia coli BL21 (DE3) incubated for 3 mins in presence of NADH by spectrophotometric analysis
Candida albicans [17] = assay: Selectivity ratio of IC50 for inhibition of Candida albicans Fructose-1,6-Bisphosphate Aldolase C292S mutant to IC50 for inhibition of wild type Candida albicans Fructose-1,6-Bisphosphate Aldolase

SMILES | MIC80 (Candida albicans [1]) [µg/mL] | MIC80 (Candida albicans [4]) [µg/mL] | MIC80 (Candida albicans [5]) [µg/mL] | MIC80 (Candida albicans [6]) [µg/mL] | IC50 [8] [nM] | further results
CCc1ccc(-n2[se]c3ccccc3c2=O)cc1 | 1 (≈ 3.31 µM) | 2 (≈ 6.62 µM) | 4 (≈ 13.2 µM) | 4 (≈ 13.2 µM) | 92 | Activity (Candida albicans [2]): Dose-Dependent Effect; Activity (Candida albicans [3]): Active; IC50 [7]: > 32000 nM
O=c1c2ccccc2[se]n1-c1ccc(Cl)cc1Cl | 2 (≈ 5.83 µM) | 2 (≈ 5.83 µM) | 4 (≈ 11.7 µM) | 4 (≈ 11.7 µM) | 76 | IC50 [7]: > 32000 nM
CC(C)c1ccc(-n2[se]c3ccccc3c2=O)cc1 | 2 (≈ 6.32 µM) | 2 (≈ 6.32 µM) | 4 (≈ 12.6 µM) | 4 (≈ 12.6 µM) | 110 | IC50 [7]: > 32000 nM
COc1ccc(-n2[se]c3ccccc3c2=O)cc1 | 4 (≈ 13.1 µM) | 4 (≈ 13.1 µM) | 4 (≈ 13.1 µM) | 4 (≈ 13.1 µM) | 91 | –
Cn1sc(=O)n(Cc2ccccc2)c1=O | – | – | – | – | – | inhibition (Candida albicans [9]): 53.7%
O=c1[nH]sc2ccccc12 | – | – | – | – | > 5000 | inhibition (Candida albicans [9]): < 50%
O=C1c2ccccc2CN1c1ccccc1 | > 64 | > 64 | > 64 | > 64 | > 100000 | inhibition (Candida albicans [10]): < 50%
CC(=O)Nc1ccc(S(=O)(=O)n2sc3ccccc3c2=O)cc1 | – | – | – | – | > 50000 | inhibition (Candida albicans [9]): < 50%
O=c1c2ccccc2[se]n1-c1ccc(-n2ccnc2)cc1 | 4 (≈ 11.8 µM) | 4 (≈ 11.8 µM) | 4 (≈ 11.8 µM) | 4 (≈ 11.8 µM) | 45.8 | Activity (Candida albicans [2]): Dose-Dependent Effect; Activity (Candida albicans [3]): Active
OC(Cn1cncn1)(Cn1cncn1)c1ccc(F)cc1F [FLUCONAZOLE] | > 64 | > 64 | 0.25 (≈ 0.816 µM) | > 64 | – | Activity (Candida albicans [2]): Active; Activity (Candida albicans [3]): inactive
O=c1c2ccccc2[se]n1-c1ccc(C(F)(F)F)cc1 | 4 (≈ 11.7 µM) | 4 (≈ 11.7 µM) | 4 (≈ 11.7 µM) | 8 (≈ 23.4 µM) | 13 | Ratio (Candida albicans [11]): 15.9 M⁻¹ s⁻¹; IC50 [7]: > 32000 nM; Ki [12]: 58 nM; Kinact (Candida albicans [13]): 0.00092 s⁻¹
COC(=O)c1ccc(-n2[se]c3ccccc3c2=O)cc1 | 4 (≈ 12 µM) | 8 (≈ 24.1 µM) | 8 (≈ 24.1 µM) | 8 (≈ 24.1 µM) | 120 | –
O=c1c2ccccc2[se]n1Nc1ccccc1 | – | – | – | – | 96.3 | –
CCCCNC(=O)Nc1ccc(-n2[se]c3ccccc3c2=O)cc1 | 8 (≈ 20.6 µM) | 8 (≈ 20.6 µM) | 8 (≈ 20.6 µM) | 8 (≈ 20.6 µM) | 93 | –
O=c1c2ccccc2[se]n1CCc1ccccc1 | 4 (≈ 13.2 µM) | 2 (≈ 6.62 µM) | 4 (≈ 13.2 µM) | 4 (≈ 13.2 µM) | 22.5 | –
O=C(NCc1ccccc1)n1sc2ccccc2c1=O | – | – | – | – | 370 | –
O=C(C(=O)n1sc2ccccc2c1=O)c1ccccc1 | – | – | – | – | 15700 | –
O=c1c2ccccc2[se]n1Cc1ccccc1 | 4 (≈ 13.9 µM) | 4 (≈ 13.9 µM) | 2 (≈ 6.94 µM) | 4 (≈ 13.9 µM) | 118 | –
O=c1c2ccccc2[se]n1-c1ccccn1 | 4 (≈ 14.5 µM) | 4 (≈ 14.5 µM) | 4 (≈ 14.5 µM) | 2 (≈ 7.27 µM) | 72.7 | –
O=C(O)CCCCC1CCSS1 (centres undefined) | – | – | – | – | – | inhibition (Candida albicans [9]): 80%
CCCCCCNC(=O)n1cc(F)c(=O)[nH]c1=O | – | – | – | – | – | inhibition (Candida albicans [9]): 62.2%
O=c1c2ccccc2[se]n1-c1nncs1 | – | – | – | – | 155 | IC50 [14]: 227 nM; IC50 [15]: 303 nM; IC50 [16]: 1750 nM; Ratio IC50 (Candida albicans [17]): 11.3
COC(=O)/C=C/C(=O)OC | – | – | – | – | – | inhibition (Candida albicans [9]): 0.58%
